Reference: patent US20030013099A1, “Genes regulated by DNA methylation in colon tumors” (priority 2001, published 2003)

System: HMEC cells
Experiment: microarray differential expression, HMEC cells treated with Aza
Assay type: cell-based, human
Details: vs untreated, log base 2, negative = upregulation
Protocol: HT29 cells were derived from a Grade II adenocarcinoma of the colon obtained from a person. HCT116 cells are a subpopulation of malignant cells isolated from a primary cell culture of a single human colonic carcinoma (Brattain et al. (1981) Cancer Res 41:1751-6). HMEC cells are a primary human epithelial cell line derived from the breast tissue of a normal donor. […] Treated cells were exposed to 500 nM 5-aza-2-deoxycytidine (Aza; Sigma-Aldrich) 24 hours after passage in complete culture medium. Control cultures were treated in parallel with phosphate buffered saline vehicle. After twenty-four hours, culture medium was replaced with drug-free medium. Control and Aza-treated cells were subcultured at equal densities at 1 and 5 days after the initial treatment, and proliferation was measured at the subsequent time point using a Coulter counter (Beckman Coulter, Fullerton Calif.). […]
Cells were harvested and lysed in 1 ml of TRIZOL reagent (5×10^6 cells/ml; Invitrogen). The lysates were vortexed thoroughly and incubated at room temperature for 2-3 minutes and extracted with 0.5 ml chloroform. The extract was mixed, incubated at room temperature for 5 minutes, and centrifuged at 16,000× g for 15 minutes at 4° C. The aqueous layer was collected, and an equal volume of isopropanol was added. Samples were mixed, incubated at room temperature for 10 minutes, and centrifuged at 16,000× g for 20 minutes at 4° C. The supernatant was removed, and the RNA pellet was washed with 1 ml of 70% ethanol, centrifuged at 16,000× g at 4° C., and resuspended in RNAse-free water. The concentration of the RNA was determined by measuring the optical density at 260 nm.
Poly(A) RNA was prepared using an OLIGOTEX mRNA kit (Qiagen) with the following modifications: OLIGOTEX beads were washed in tubes instead of on spin columns, resuspended in elution buffer, and then loaded onto spin columns to recover mRNA. To obtain maximum yield, the mRNA was eluted twice.
Each poly(A) RNA sample was reverse transcribed using MMLV reverse-transcriptase, 0.05 pg/μl oligo-d(T) primer (21mer), 1× first strand buffer, 0.03 units/ul RNAse inhibitor, 500 uM dAT?, 500 uM dGTP, 500 uM dTTP, 40 uM dCTP, and 40 uM either dCTP-Cy3 or dCTP-Cy5 (APB). The reverse transcription reaction was performed in a […] volume containing 200 ng poly(A) RNA using the GEMBRIGHT kit (Incyte Genomics). Specific control poly(A) RNAs (YCFRO6, YCFR45, YCFR67, YCFR85, YCFR43, YCFR22, YCFR23, YCFR25, YCFR44, YCFR26) were synthesized by in vitro transcription from non-coding yeast genomic DNA (W. Lei, unpublished). As quantitative controls, control mRNAs (YCFRO6, YCFR45, YCFR67, and YCFR85) at 0.002 ng, 0.02 ng, 0.2 ng, and 2 ng were diluted into reverse transcription reaction at ratios of 1:100,000, 1:10,000, 1:1000, 1:100 (w/w) to sample mRNA, respectively. To sample differential expression patterns, control mRNAs (YCFR43, YCFR22, YCFR23, YCFR25, YCFR44, YCFR26) were diluted into reverse transcription reaction at ratios of 1:3, 3:1, 1:10, 10:1, 1:25, 25:1 (w/w) to sample mRNA. Reactions were incubated at 37° C. for 2 hours, treated with […] of 0.5M sodium hydroxide, and incubated for 20 minutes at 85° C. to the stop the reaction and degrade the RNA.
cDNAs were purified using two successive CHROMA SPIN 30 gel filtration spin columns (Clontech). Cy3- and Cy5-labeled reaction samples were combined as described below and ethanol precipitated using […] of 100% ethanol. The cDNAs were then dried to completion using a SpeedVAC system (Savant Instruments, Holbrook N.Y.) and resuspended in 14 μl 5× SSC, 0.2% SDS.
Hybridization reactions contained 9 μl of sample mixture containing 0.2 μg each of Cy3 and CyS labeled cDNA synthesis products in 5× SSC, 0.2% SDS hybridization buffer. The mixture was heated to 65° C. for 5 minutes and was aliquoted onto the microarray surface and covered with an 1.8 cm^2 coverslip. […]

[1] = SEQ ID NO:1 hypothetical protein
[2] = SEQ ID NO:3 interferon-inducible protein
[3] = SEQ ID NO:5 chromosome 6p21.3, HLA Class I region
[4] = SEQ ID NO:6 unnamed protein product
[5] = SEQ ID NO:8 putative tumor antigen
[6] = SEQ ID NO:12 cDNA clone ZD16H10
[7] = SEQ ID NO:13, 14 T-cell receptor gamma
[8] = SEQ ID NO:15 pTR5 repetitive sequence
[9] = SEQ ID NO:24 pTR7 repetitive sequence
[10] = SEQ ID NO:25 chromosome 21 segment HS21C049
[11] = SEQ ID NO:26 hypothetical protein

## Nc1ncn([C@H]2C[C@H](O)[C@@H](CO)O2)c(=O)n1 [Aza, 5-aza-2-deoxycytidine]
[1]
  differential expression, Clone ID 2416222, HMEC t/Aza (4d): 0.00
  differential expression, Clone ID 2416222, HMEC t/Aza (9d): 0.00
SEQ ID NO:2 Incyte Unique
  differential expression, Clone ID 4103545, HMEC t/Aza (4d): −0.13
  differential expression, Clone ID 4103545, HMEC t/Aza (9d): −0.43
[2]
  differential expression, Clone ID 322569, HMEC t/Aza (4d): −0.53
  differential expression, Clone ID 322569, HMEC t/Aza (9d): −0.80
[3]
  differential expression, Clone ID 5322134, HMEC t/Aza (4d): −0.32
  differential expression, Clone ID 5322134, HMEC t/Aza (9d): −0.43
[4]
  differential expression, Clone ID 1698458, HMEC t/Aza (4d): 0.26
  differential expression, Clone ID 1698458, HMEC t/Aza (9d): 0.26
SEQ ID NO:7 KIAA1046 protein
  differential expression, Clone ID 1871523, HMEC t/Aza (4d): −0.24
  differential expression, Clone ID 1871523, HMEC t/Aza (9d): −0.07
[5]
  differential expression, Clone ID 6024084, HMEC t/Aza (4d): 0.00
  differential expression, Clone ID 6024084, HMEC t/Aza (9d): 0.00
SEQ ID NO:9 Incyte Unique
  differential expression, Clone ID 3810006, HMEC t/Aza (4d): 0.00
  differential expression, Clone ID 3810006, HMEC t/Aza (9d): 0.00
SEQ ID NO:10 Incyte Unique
  differential expression, Clone ID 4508879, HMEC t/Aza (4d): −0.14
  differential expression, Clone ID 4508879, HMEC t/Aza (9d): −0.20
SEQ ID NO:11 U 6 RNA
  differential expression, Clone ID 4225379, HMEC t/Aza (4d): 0.00
  differential expression, Clone ID 4225379, HMEC t/Aza (9d): 0.00
[6]
  differential expression, Clone ID 3463713, HMEC t/Aza (4d): −0.26
  differential expression, Clone ID 3463713, HMEC t/Aza (9d): −0.48
[7]
  differential expression, Clone ID 2998017, HMEC t/Aza (4d): 0.00
  differential expression, Clone ID 2998017, HMEC t/Aza (9d): 0.00
[8]
  differential expression, Clone ID 4318273, HMEC t/Aza (4d): 0.00
  differential expression, Clone ID 4318273, HMEC t/Aza (9d): −0.26
SEQ ID NO:16 Hep27 protein
  differential expression, Clone ID 1649414, HMEC t/Aza (4d): −0.32
  differential expression, Clone ID 1649414, HMEC t/Aza (9d): −0.32
SEQ ID NO:18 cDNA FLJ20222
  differential expression, Clone ID 1684742, HMEC t/Aza (4d): −0.36
  differential expression, Clone ID 1684742, HMEC t/Aza (9d): −0.20
SEQ ID NO:19 KIAA0412
  differential expression, Clone ID 2825816, HMEC t/Aza (4d): 0.00
  differential expression, Clone ID 2825816, HMEC t/Aza (9d): 0.00
SEQ ID NO:21 Incyte Unique
  differential expression, Clone ID 2440943, HMEC t/Aza (4d): −0.20
  differential expression, Clone ID 2440943, HMEC t/Aza (9d): −0.26
SEQ ID NO:22 PDGF-B
  differential expression, Clone ID 1294339, HMEC t/Aza (4d): −0.68
  differential expression, Clone ID 1294339, HMEC t/Aza (9d): −0.72
SEQ ID NO:23 cDNA FLJ10570
  differential expression, Clone ID 5104741, HMEC t/Aza (4d): 0.00
  differential expression, Clone ID 5104741, HMEC t/Aza (9d): 0.00
[9]
  differential expression, Clone ID 1855389, HMEC t/Aza (4d): −0.14
  differential expression, Clone ID 1855389, HMEC t/Aza (9d): −0.26
[10]
  differential expression, Clone ID 5207613, HMEC t/Aza (4d): −0.26
  differential expression, Clone ID 5207613, HMEC t/Aza (9d): −0.37
[11]
  differential expression, Clone ID 3207902, HMEC t/Aza (4d): −0.14
  differential expression, Clone ID 3207902, HMEC t/Aza (9d): −0.26
SEQ ID NO:27 ZNFpT17
  differential expression, Clone ID 4999769, HMEC t/Aza (4d): 0.00
  differential expression, Clone ID 4999769, HMEC t/Aza (9d): 0.07
SEQ ID NO:28 transketolase
  differential expression, Clone ID 408886, HMEC t/Aza (4d): −0.26
  differential expression, Clone ID 408886, HMEC t/Aza (9d): −0.32
SEQ ID NO:30 GAGE-8
  differential expression, Clone ID 4764233, HMEC t/Aza (4d): 0.00
